{
  "source": "patent US20030170731A1",
  "about": "“Diagnosis and treatment of non-ulcer dyspepsia based on hypothalamic-pituitary-adrenal axis abnormallity” (priority 2000, published 2003)",
  "system": "CRH receptors",
  "assay": "CRH/ACTH test: plasma ACTH after intravenous ovine CRH, immunoradiometric assay",
  "type": "in vivo, human",
  "settings": "ovine CRH 100 μg intravenously",
  "source_text": "A total of ten patients with NUD were recruited from the Gastroenterology Clinic at St. James's Hospital, Dublin. Patients consisted of six men and four woman between the ages of twenty eight and forty five. They were matched for age and sex with ten healthy volunteers. To be included in the study patients had at least four of the following symptoms for at least three months: early satiety, upper abdominal pain, post prandial bloating, excessive flatulence, borborygmus, and nausea and/or vomiting. They all had normal results on physical examination. Endoscopic examination, twenty-four hour ambulatory pH monitoring, abdominal ultrasound were all negative. Five patients with H. pylori infestation were tested both before and after H. pylori eradication. The other five patients had no evidence of H. pylori infection. None of the patients had evidence of a formal psychiatric illness. Also none of the patients fulfilled the criteria for IBS.\nPatients who were H. pylori positive were re-tested six months after commencing eradication therapy. In all cases endocrine tests were commenced at 1400 h. The test procedure was as follows. […]\nPlasma ACTH was measured using a two site unextracted immunoradiometric assay with a commercially available kit supplied by the Nichols Institute (San Juan Capistrano, Calif.). […]",
  "data": [
    {"substance": "ovine CRH: ovine variant of corticotropin releasing hormone, given intravenously as a challenge agent", "values": [
      {"measurement": "CRH/ACTH enhancement following H. pylori eradication therapy", "setting": "H. pylori positive NUD patients re-tested six months after commencing eradication therapy", "value": "persists"},
      {"measurement": "plasma ACTH response following CRH stimulation", "setting": "NUD patients with and without H. pylori infection, relative to healthy volunteers, blood at 15-120 min", "value": "vastly enhanced"}
    ]}
  ]
}
